From patent publication US9480655B2, “Solid pharmaceutical dosage form of dolutegravir” (ratiopharm GmbH, priority 2013, dated 2016)
Structures can show the parent of a compound that is named as a salt. Where two headings read alike, the source gives them in different places. Values belong to the compound of their own block, whether it stands above or below them.

Assay: Solubility of dolutegravir and its salts in aqueous media
Type: physicochemical
Protocol: At an increasing pH, for example to pH 6.8 in 50 mM KH2PO4 the solubility of the sodium salt of dolutegravir slightly increases but the salt still remains very slightly soluble (1-0.1 mg/ml), only. Due to this very low solubility of the active ingredient the tablets known from WO2006/116764 are of little practical use because the active ingredient will hardly dissolve in the intestine resulting in a low bioavailability.
Dolutegravir may be present in the solid pharmaceutical dosage form in its non-salt form or any pharmaceutically acceptable salt or solvate thereof. Suitable pharmaceutically acceptable salts are known to the skilled person. For example, dolutegravir may be present as alkali metal salt, such as dolutegravir sodium or dolutegravir potassium. The potassium salt being preferred.

solubility (medium not stated): practically insoluble
SMILES: C[C@@H]1CCO[C@H]2Cn3cc(C(=O)NCc4ccc(F)cc4F)c(=O)c(O)c3C(=O)N12 [Dolutegravir, (4R,12aS)-N-(2,4-difluorobenzyl)-7-hydroxy-4-methyl-6,8-dioxo-3,4,6,8,12,12a-hexahydro-2H-pyrido[1′,2′:4,5]pyrazino[2,1-b][1,3]oxazine-9-carboxamide]

solubility relative to the sodium salt: more soluble than the sodium salt
SMILES: C[C@@H]1CCO[C@H]2Cn3cc(C(=O)NCc4ccc(F)cc4F)c(=O)c(O)c3C(=O)N12 [potassium salt]

solubility (aqueous buffer, pH 6.8 in 50 mM KH2PO4, read-out: solubility): 100 to 1000 µg/mL
solubility (simulated gastric fluid, 0.1 N HCl (pH 1.2), read-out: solubility): < 100 µg/mL
SMILES: C[C@@H]1CCO[C@H]2Cn3cc(C(=O)NCc4ccc(F)cc4F)c(=O)c(O)c3C(=O)N12 [sodium salt of dolutegravir]
